Key:
[1] = system: arginase activities of the various tissues; test: arginase activity in tissue homogenates (liver, IAS, rectum, brain) with NO synthase inhibitor; assay type: biochemical, opossum; settings: 80 micromolar; basal and in the presence of L-HO-Arg
Method: Tissue samples of the opossum internal anal sphincter muscle (IAS), adjoining rectal tissue, liver, and brain were homogenized using an ULTRATURRAX™ tissue homogenizer (Tekamr, Cincinnati, Ohio) in a solution comprising 10 millimolar Tris-HCl, 150 millimolar KCl, and 25 millimolar MnCl2, at pH 7.4. The homogenates were dialyzed overnight against the same solution. […]
Arginase activity in tissue homogenates was evaluated using the radioactive L-[guanidino^14C]arginine assay of Rüegg and Russell (1980, Anal. Biochem. 102:206-212). […] Urea was separated from non-reacted L-[guanidino-^14C]arginine by treatment with 200 μl of 1:1 v/v slurry of DOWEX™ 50W-X8 in water, and quantitated by adding 200 microliters of the supernatant from the DOWEX™ treatment to 3 milliliters of LIQUISCENT™ (National Diagnostics) for liquid scintillation counting in a Beckman LS 5000CE counter. The data were analyzed using double-reciprocal plots of the initial velocity measurements; standard errors were determined by regression analysis.
Thus, it is possible that tissue variations in inhibition of arginase activities by L-HO-Arg could be due to depletion of added L-HO-Arg by conversion to NO. In order to test this possibility, the effects of L-HO-Arg on arginase activities in the tissue homogenates were determined in the presence of the NO synthase inhibitor L-NNA.

[2] = system: internal anal sphincter (IAS) smooth muscle; test: NANC nerve-mediated relaxation of IAS smooth muscle strips by electrical field stimulation; design: species or system opossum (Didelphis virginiana); settings: L-NNA 3×10^−6 molar
[3] = substrate: N=C(N)Nc1cccc([N+](=O)[O-])c1; test: continuous chromogenic arginase assay with substrate 1-nitro-3-guanidinobenzene (compound 18); assay type: biochemical, rat; settings: other: as substrate, bicine pH 9.0
Method: The activity of wild-type arginase was monitored spectrophotometrically using a Pharmacia BIOTECH ULTROSPEC™ 2000. Assays were performed in a solution comprising 100 micromolar MnCl2 and 50 millimolar bicine-NaOH (pH 9.0). […] Eadie-Hofstee plots were used to analyze the data.

Molecule | effect of L-NNA on arginase activities [1] | IAS relaxation in the presence of L-NNA ([2]; 0.5 Hertz EFS) [%] | IAS relaxation in the presence of L-NNA ([2]; 1 Hertz EFS) [%] | IAS relaxation in the presence of L-NNA ([2]; 2 Hertz EFS) [%] | IAS relaxation in the presence of L-NNA ([2]; 5 Hertz EFS) [%] | Km [3] [millimolar]
N=C(NCCC[C@H](N)C(=O)O)N[N+](=O)[O-] [L-NNA, N^ω-nitro-L-arginine] | no significant effect | 0±0 | 0.6±0.6 | 1.8±1.1 | 5.4±2.1 | 
Recombinant rat liver arginase (Rattus norvegicus) (protein, made in house) MSSKPKPIEIIGAPFSKGQPRGGVEKGPAALRKAGLVEKLKETEYNVRDHGDLAFVDVPNDSPFQIVKNPRSVGKANEQLAAVVAETQKNGTISVVLGGDHSMAIGSISGHARVHPDLCVIWVDAHTDINTPLTTSSGNLHGQPVAFLLKELKGKFPDVPGFSWVTPCISAKDIVYIGLRDVDPGEHYIIKTLGIKYFSMTEVDKLGIGKVMEETFSYLLGRKKRPIHLSFDVDGLDPVFTPATGTPVVGGLSYREGLYITEEIYKTGLLSGLDIMEVNPTLGKTPEEVTRTVNTAVALTLSCFGTKREGNHKPETDYLKPPK |  |  |  |  |  | 1.6±0.2

— US6723710B2, “Compositions for inhibiting arginase activity” (The Trustees of the University of Pennsylvania, priority 1997, dated 2004)
